Data: PMC7734625, “Stabilization Strategies for Linear Minigastrin Analogues: Further Improvements via the Inclusion of Proline into the Peptide Sequence” (Journal of Medicinal Chemistry, 2020)
Like-named read-outs stand apart in the source and are kept apart here. Values belong to the molecule of their own block, whether it stands above or below them. Non-standard residues stand in square brackets, D forms with d. Residues, ends and D or L forms follow the SMILES beside them. *: point of attachment. DOTA = O=C(O)CN1CCN(CC(=O)O)CCN(CC(=O)*)CCN(CC(=O)O)CC1; 1Nal = N[C@@H](Cc1cccc2ccccc12)C(=O)O; NMeNle = CCCC[C@H](NC)C(=O)O

Columns and labels:
[1] = log D, octanol/PBS distribution; format: physicochemical; details: 111In-labeled peptide
[2] = protein binding in human serum (Sephadex G-50 size-exclusion chromatography); format: in vitro ADME
Method: The protein binding in human serum (500 pmol/mL, n = 2) was assessed by Sephadex G-50 size-exclusion chromatography (GE Healthcare Illustra, Little Chalfont, U.K.) for up to 24 h.

[3] = in vivo stability studies in BALB/c mice; details: i.v.
Method: Metabolic studies evaluating the stability of the radioligands were carried out in 7- to 8-week-old female BALB/c mice. With the ^111In-labeled peptide derivatives, the studies were performed for the time point of 10 min p.i. (n = 2). With the ^177Lu-labeled peptide derivatives, additional studies were also carried out for the time point of 30 min and 60 min p.i. (n = 1 for each time point). To allow monitoring of the metabolites by analytical HPLC, the mice were injected with a higher amount of radioactivity (6–9 MBq indium-111, 30–45 MBq lutetium-177) corresponding to ∼1 nmol total peptide intravenously through a lateral tail vein. At different time points, the mice were euthanized by cervical dislocation and urine and a blood sample was collected. Liver and kidneys were excised and homogenized in 20 mM HEPES buffer pH 7.3. The amount of intact radiopeptide and the formation of metabolites was analyzed by analytical HPLC. Prior to injection into the HPLC system, all samples were treated as described for human serum and rat organ homogenate samples.

[4] = system: A431-CCK2R/A431-mock xenografts; experiment: biodistribution in A431-CCK2R/A431-mock xenografted BALB/c nude mice; format: in vivo
Method: (§1) Biodistribution studies evaluating the tumor uptake of the radiolabeled peptides were performed in 7- to 9-week-old female athymic BALB/c nude mice (Charles River, Sulzfeld, Germany). For the induction of tumor xenografts, 150 μL of DMEM containing 2 × 10^6 A431-CCK2R and A431-mock cells were injected subcutaneously in the right and left flank of each mouse, respectively. And 10–14 days after injection, tumors reached a medium weight of ∼0.25 g. The mice were divided into groups of four and injected intravenously via a lateral tail vein with 0.2 MBq of ^111In-labeled compound (0.02 nmol) and 0.7 and 1.5 MBq of the ^177Lu-labeled compound (0.02 and 0.15 nmol). At 4 and 12 h p.i., the mice were sacrificed and the tumors and other tissues (blood, lung, heart, muscle, spleen, intestine, liver, kidneys, stomach, and pancreas) were removed, weighed, and their radioactivity measured in the γ counter together with the rest of the body. Initial biodistribution studies were performed with the three ^177Lu-labeled CCK2R-targeting ligands at an injected peptide amount of 20 pmol for the time point of 4 h p.i. From these studies, two peptide analogues were selected to further characterize the biodistribution profile also at a later time point of 12 h p.i. and at a higher injected peptide amount of 150 pmol. Additional animal studies were performed for the ^111In-labeled conjugates. Percentage of injected activity per gram tissue (%IA/g), tumor-to-organ activity ratios, as well as whole body activity were calculated for each sample and statistical analysis using independent two-population t-test (significance level p < 0.05) was performed using Origin software. For the comparison of more than two groups, data were analyzed using one-way analysis of variance (ANOVA) Holm–Bonferroni-adjusted post hoc analysis (significance level p < 0.05) using Microsoft Excel 2010 software (Microsoft Excel 2010, Microsoft Corporation, WA).

[5] = as above; format: in vivo; details: female, athymic BALB/c nude, mouse, iv, 20 pmol, total radioactivity, 20 pmol, 4 h p.i.
Method: as §1

[6] = 4 h after incubation, read-out: protein binding (%) 4 h (converted)
[7] = 24 h after incubation, read-out: protein binding (%) 24 h (converted)

logD [1]: -2.05 | fraction unbound [2, 6]: 0.588 | fraction unbound [2, 7]: 0.54
SMILES: CCCC[C@@H](C(=O)N[C@@H](CC(=O)O)C(=O)N[C@@H](Cc1cccc2ccccc12)C(N)=O)N(C)C(=O)[C@H](Cc1c[nH]c2ccccc12)NC(=O)[C@@H]1CCCN1C(=O)[C@H](Cc1ccc(O)cc1)NC(=O)[C@H](C)NC(=O)[C@@H](CCC(=O)O)NC(=O)CN1CCN(CC(=O)O)CCN(CC(=O)O)CCN(CC(=O)O)CC1 [[^111In]In-3, metal not drawn] ({DOTA}-[dE]AYPW[NMeNle]D[1Nal]-NH2)

intact radiopeptide in blood ([3]; 60 min p.i., n = 1): 79.1% | intact radiopeptide in kidneys ([3]; 60 min p.i., n = 1): 11.0% | intact radiopeptide in liver ([3]; 60 min p.i., n = 1): 74.5% | intact radiopeptide in urine ([3]; 60 min p.i., n = 1): 18.8% | tumor uptake in A431-CCK2R xenografts ([4]; 150 pmol, 4 h p.i.): 15.26 ± 6.84 % IA/g | tumor retention ([4]; A431-CCK2R xenografts, 12 h p.i. relative to 4 h p.i., 20 pmol): > 60% | reduction of tumor uptake in A431-CCK2R xenografts ([4]; injected peptide amount increased to 150 pmol vs 20 pmol, 4 h p.i.): about 50%
SMILES: CCCC[C@@H](C(=O)N[C@@H](CC(=O)O)C(=O)N[C@@H](Cc1cccc2ccccc12)C(N)=O)N(C)C(=O)[C@H](Cc1c[nH]c2ccccc12)NC(=O)CNC(=O)[C@@H]1CCCN1C(=O)[C@H](Cc1ccc(O)cc1)NC(=O)[C@@H](CCC(=O)O)NC(=O)CN1CCN(CC(=O)O)CCN(CC(=O)O)CCN(CC(=O)O)CC1 [[^177Lu]Lu-2] [metal not drawn] ({DOTA}-[dE]YPGW[NMeNle]D[1Nal]-NH2)

intact radiopeptide in blood ([3]; 60 min p.i., n = 1): 63.5% | intact radiopeptide in kidneys ([3]; 60 min p.i., n = 1): 7.2% | intact radiopeptide in liver ([3]; 60 min p.i., n = 1): 35.6% | intact radiopeptide in urine ([3]; 60 min p.i., n = 1): 20.6% | tissue to tissue ratio at 4 h ([5]; A431-CCK2R xenograft tumor / blood, read-out: tumor-to-blood ratio): 709 ± 470 | tissue to tissue ratio at 4 h ([5]; A431-CCK2R xenograft tumor / kidney, read-out: tumor-to-kidney ratio): 4.52 ± 1.41 | tissue to tissue ratio at 4 h ([5]; A431-CCK2R xenograft tumor / liver, read-out: tumor-to-liver ratio): 58 ± 19.2 | tissue to tissue ratio at 4 h ([5]; A431-CCK2R xenograft tumor / stomach, read-out: tumor-to-stomach ratio): 6.49 ± 1.32 | tissue uptake at 4 h ([5]; A431-CCK2R xenograft tumor, read-out: tumor uptake in A431-CCK2R xenografts): 28.6 ± 7.95 %ID/g | tissue uptake at 4 h ([5]; A431-mock xenograft tumor, read-out: uptake in A431-mock xenografts): 0.25 ± 0.06 %ID/g | tissue uptake at 4 h ([5]; blood, read-out: uptake in blood): 0.06 ± 0.03 %ID/g | tissue uptake at 4 h ([5]; heart, read-out: uptake in heart): 0.08 ± 0.01 %ID/g | tissue uptake at 4 h ([5]; intestine, read-out: uptake in intestine): 0.95 ± 0.23 %ID/g | tissue uptake at 4 h ([5]; kidney, read-out: uptake in kidney): 6.61 ± 1.75 %ID/g | tissue uptake at 4 h ([5]; liver, read-out: uptake in liver): 0.52 ± 0.12 %ID/g | tissue uptake at 4 h ([5]; lung, read-out: uptake in lung): 0.17 ± 0.05 %ID/g | tissue uptake at 4 h ([5]; muscle, read-out: uptake in muscle): 0.09 ± 0.05 %ID/g | tissue uptake at 4 h ([5]; pancreas, read-out: uptake in pancreas): 1.78 ± 0.72 %ID/g | tissue uptake at 4 h ([5]; spleen, read-out: uptake in spleen): 0.19 ± 0.02 %ID/g | tissue uptake at 4 h ([5]; stomach, read-out: uptake in stomach): 4.73 ± 2.29 %ID/g
SMILES: CCCC[C@@H](C(=O)N[C@@H](CC(=O)O)C(=O)N[C@@H](Cc1cccc2ccccc12)C(N)=O)N(C)C(=O)[C@H](Cc1c[nH]c2ccccc12)NC(=O)[C@@H]1CCCN1C(=O)[C@H](Cc1ccc(O)cc1)NC(=O)[C@H](C)NC(=O)[C@@H](CCC(=O)O)NC(=O)CN1CCN(CC(=O)O)CCN(CC(=O)O)CCN(CC(=O)O)CC1 [[^177Lu]Lu-3, metal not drawn] ({DOTA}-[dE]AYPW[NMeNle]D[1Nal]-NH2)

More lines, now with the values behind:

SMILES: CCCC[C@@H](C(=O)N[C@@H](CC(=O)O)C(=O)N[C@@H](Cc1cccc2ccccc12)C(N)=O)N(C)C(=O)[C@H](Cc1c[nH]c2ccccc12)NC(=O)CNC(=O)[C@H](Cc1ccc(O)cc1)NC(=O)[C@@H]1CCCN1C(=O)[C@@H](CCC(=O)O)NC(=O)CN1CCN(CC(=O)O)CCN(CC(=O)O)CCN(CC(=O)O)CC1 [[^111In]In-1, metal not drawn] ({DOTA}-[dE]PYGW[NMeNle]D[1Nal]-NH2)
logD [1]: -2.03 | fraction unbound [2, 6]: 0.555 | fraction unbound [2, 7]: 0.472

SMILES: CCCC[C@@H](C(=O)N[C@@H](CC(=O)O)C(=O)N[C@@H](Cc1cccc2ccccc12)C(N)=O)N(C)C(=O)[C@H](Cc1c[nH]c2ccccc12)NC(=O)CNC(=O)[C@@H]1CCCN1C(=O)[C@H](Cc1ccc(O)cc1)NC(=O)[C@@H](CCC(=O)O)NC(=O)CN1CCN(CC(=O)O)CCN(CC(=O)O)CCN(CC(=O)O)CC1 [[^111In]In-2, metal not drawn] ({DOTA}-[dE]YPGW[NMeNle]D[1Nal]-NH2)
logD [1]: -1.75 | fraction unbound [2, 6]: 0.432 | fraction unbound [2, 7]: 0.466

SMILES: CCCC[C@@H](C(=O)N[C@@H](CC(=O)O)C(=O)N[C@@H](Cc1cccc2ccccc12)C(N)=O)N(C)C(=O)[C@H](Cc1c[nH]c2ccccc12)NC(=O)CNC(=O)[C@@H]1CCCN1C(=O)[C@H](Cc1ccc(O)cc1)NC(=O)[C@@H](CCC(=O)O)NC(=O)CN1CCN(CC(=O)O)CCN(CC(=O)O)CCN(CC(=O)O)CC1 [[^111In]In-2] [metal not drawn] ({DOTA}-[dE]YPGW[NMeNle]D[1Nal]-NH2)
intact radiopeptide in blood ([3]; 10 min p.i.): 82.3 ± 1.8% | intact radiopeptide in kidneys ([3]; 10 min p.i.): 30.2 ± 0.5% | intact radiopeptide in liver ([3]; 10 min p.i.): 73.9 ± 1.2% | intact radiopeptide in urine ([3]; 10 min p.i.): 30.3 ± 5.9%
